# Columns and labels:
# [1] = Circular dichroism spectroscopy and thermal denaturation; type: physicochemical; settings: for TM (midpoint of thermal denaturation): MRE222 monitored 5 to 90 °C at 40 °C h^–1, PBS pH 7.4, 50 μM of each peptide; for % helicity: from MRE222, 20 °C, calculation per ref 68
# From the text: (A & B) CC-Di (pale green), CC-Di_S (lime), CC-Di_E1 (green), CC-Di_E2 (olive). (C & D) CC-Di-A (pink), CC-Di-B (cyan), CC-Di-A : CC-Di-B mixture (purple). (E & F) CC-Di-A_S (red), CC-Di-B (cyan), CC-Di-A_S : CC-Di-B mixture (brown). (G & H) CC-Di-A (pink), CC-Di-B_S (blue), CC-Di-A : CC-Di-B_S mixture (indigo). For heteromeric assemblies (i.e. Panels C–H) the theoretical spectra expected should the pairs of peptides not interact are depicted by grey dashes. Conditions: all experiments were performed in phosphate-buffered saline (PBS; pH 7.4) at 50 μM concentration of each peptide. Equilibrium CD spectra were recorded at 20 °C.
# CD spectra were collected using a JASCO J810 spectropolarimeter coupled to a Peltier temperature controller. Peptide-containing solutions were freshly prepared in PBS (pH 7.4) with concentrations calculated from UV absorption at 280 nm (ε(Tyr) = […]).[78] Samples were examined at 50 μM concentration for lone peptides and 50 + 50 μM for two peptide heterodimeric examples, in a 1 mm quartz cuvette. […] Thermal denaturation experiments were conducted by ramping temperature from 5 to 90 °C at 40 °C h^–1. Full spectra (260–190 nm, 5 scans) were recorded at 5 °C and 20 °C, while the CD signal at 222 nm was recorded across the full temperature range at 1 °C intervals (1 nm interval, 1 nm bandwidth, 16 s response time).
# MCL-1/FITC-BID = target: T1, MCL-1/FITC-BID (Homo sapiens, UniProt Q07820); assay: Fluorescence anisotropy competition assay, MCL-1/FITC-BID; type: binding; settings: for Displacement of FITC-BID from MCL-1 (in words) / IC50 MCL-1/BID: 150 nM MCL-1, 25 nM FITC-BID; for IC50 MCL-1/BID: Table 2, 21 °C, Tris buffer pH 7.4 + 0.01% Triton-X-100, 20-21 h incubation, triplicate
# T1 construct: made in house
# BCL-xL/FITC-BID = target: T2, BCL-xL/FITC-BID (Homo sapiens, UniProt Q07817, DEL27-82); assay: Fluorescence anisotropy competition assay, BCL-xL/FITC-BID; type: binding; settings: competition titration, 20-21 h incubation
# T2 construct: made in house
# [2] = Sedimentation-equilibrium analytical ultracentrifugation; type: physicochemical; settings: AUC, relative to monomer molecular mass, 20 °C, PBS, 50 μM of each peptide
# Experimental: Sedimentation equilibrium experiments were prepared in PBS (137 mM NaCl, 2.7 mM KCl, 8.2 mM Na2HPO4 and 1.8 mM KH2PO4) at 50 μM peptide concentration for homomeric assemblies and 50 μM peptide concentration of both peptides for heteromeric assemblies and to 120 μL. The reference channel was loaded with 130 μL of PBS solution. Equilibrium distributions were measured twice per speed, in 4 krpm increments, and with rotor speeds from 40 to 60 krpm. Data were fitted to single ideal species models using Ultrascan II (; http://www.ultrascan.uthscsa.edu). […] 95% confidence limits were obtained by Monte Carlo analysis of the fits. The partial specific volume for each of the peptides and the buffer density were calculated using Ultrascan II.
# Beckman Proteomelab XL -I analytical ultracentrifuge u sing an An -60 Ti rotor and 2-channel centrepiec es.
# Sedimentation equilibrium experiments were made up in PBS (137 mM NaCl, 2.7 mM KCl, 8.2 mM
# Na2HP O4 and 1.8 mM KH2PO4) at 50 µM peptide concentration for homomeric assemblies and 50 µM
# peptide concentration of both peptides for heteromeric assemblies and to 120 µL. The referenc e channel
# was loaded with 130 µL of PBS solution. Equilibrium distributions were measured twice per speed, in 4
# krpm increments, and with rotor speeds from 40 to 60 krpm. Data were fitted to single ideal species models […]
# were calculated using Ultrascan II.
# hDM2/Flu-p53 = type: binding; settings: read-out: IC50, inhibition of Flu-p53/hDM2 (positive control)
# [3] = PBS pH 7.4, 50 μM of each peptide
# T1 sequence (Q07820 173-327 limits assumed): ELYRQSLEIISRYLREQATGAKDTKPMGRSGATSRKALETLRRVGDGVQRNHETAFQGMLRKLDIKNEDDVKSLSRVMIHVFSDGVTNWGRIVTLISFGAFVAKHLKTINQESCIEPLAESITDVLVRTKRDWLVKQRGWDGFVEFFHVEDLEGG
# T2 sequence (Q07817 with tags, fused parts or gaps DEL27-82 limits assumed, species assumed): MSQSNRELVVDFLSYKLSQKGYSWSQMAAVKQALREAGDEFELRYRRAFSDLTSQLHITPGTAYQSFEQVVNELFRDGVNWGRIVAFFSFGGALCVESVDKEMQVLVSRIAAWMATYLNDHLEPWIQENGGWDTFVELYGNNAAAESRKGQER
compound,measurement,setting,value
"Ac-G KIAALKQ KILRLIG DNVALKQ KIAALKQ GYG-NH [CC-Di-B_S, basic peptide with the short motif graft that should partner peptide CC-Di-A]",TM (midpoint of thermal denaturation),[1],27 °C
same,% helicity,[1]; [3],46%
same,Displacement of FITC-BID from MCL-1 (in words),MCL-1/FITC-BID,"neither of the free peptides, CC-Di-B or CC-Di-B_S, competed with FITC-BID"
same,IC50 MCL-1/BID,MCL-1/FITC-BID,No response
"Ac-G EIAALEQ EIAALEK ENAALEQ EIAALEQ GYG-NH [CC-Di-A, acidic peptide of the obligate heterodimer CC-Di-AB]",MRE222,"[1]; CD at 222 nm, 20 °C, PBS pH 7.4, 50 μM of each peptide",–6577 deg cm^2 dmol res^–1
same,TM (midpoint of thermal denaturation),[1],NA (<0) °C
same,% helicity,[1]; [3],19%
same,Displacement of FITC-BID from MCL-1 (in words),MCL-1/FITC-BID,does not bind MCL-1
same,IC50 MCL-1/BID,MCL-1/FITC-BID,No response
"Ac-G KIAALKQ KIAALKK KNAALKQ KIAALKQ GYG-NH [CC-Di-B, basic peptide of the obligate heterodimer CC-Di-AB]",TM (midpoint of thermal denaturation),[1],38 °C
same,% helicity,[1]; [3],71%
same,Displacement of FITC-BID from MCL-1 (in words),MCL-1/FITC-BID,"neither of the free peptides, CC-Di-B or CC-Di-B_S, competed with FITC-BID"
same,IC50 MCL-1/BID,MCL-1/FITC-BID,No response
Ac-GEIAALKQEILRLIGDNVALKQEIAALKQGYG-NH2 [CC-Di_S],Inhibition of BCL-xL/FITC-BID (in words),BCL-xL/FITC-BID,inconclusive
Ac-GEILALKQEILRLIGDNVALKQEILNLKQGYG-NH2 [CC-Di_E1],IC50,MCL-1/FITC-BID,700 ± 50 nM
"Ac-G EIAALKQ EIAALKK ENAALKQ EIAALKQ GYG-NH [CC-Di, de novo designed homodimeric coiled-coil peptide, unmodified scaffold]",TM (midpoint of thermal denaturation),[1],75 °C
same,% helicity,[1]; [3],90%
same,Displacement of FITC-BID from MCL-1 (in words),MCL-1/FITC-BID,did not displace FITC-BID
same,IC50 MCL-1/BID,MCL-1/FITC-BID,No response
same,Oligomer state,[2],1.96
COc1ccc(C2=N[C@@H](c3ccc(Cl)cc3)[C@@H](c3ccc(Cl)cc3)N2C(=O)N2CCNC(=O)C2)c(OC(C)C)c1 [Nutlin-3a],IC50,hDM2/Flu-p53,273 ± 41 nM
